# Test results: PubChem BioAssay AID1963851 (Molecular Pharmacology Branch, DTP, NCI, 2024)
# pIC50: −log10 of the molar value.
# Tested on: 188146-221-R-J1-PDC complex spheroid viability
# Experiment: Anticancer human tumor 188146-221-R-J1-PDC patient-derived colon adenocarcinoma cell line growth inhibition [POLQ]
# Conditions: for pIC50: curve of first compound; for viability, T/C: stronger effect = lower value
# Procedure, shortened: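 Growth inhibition in 3D: complex spheroids (tumor PDC, HUVEC, MSC) treated with POLQ inhibitor combinations; where Cmax unknown, highest tested concentration 10 microM, except SN-38 at 1 microM.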
# [1] = second compound 0.0316 µM, first compound 0.0316 µM
# [2] = second compound 0.0316 µM, first compound 0.1 µM
# [3] = second compound 0.0316 µM, first compound 0.316 µM
# [4] = second compound 0.0316 µM, first compound 1 µM
# [5] = second compound 0.0316 µM, first compound 3.16 µM
# [6] = second compound 0.0316 µM, first compound 10 µM
# [7] = second compound 0.1 µM, first compound 0.0316 µM
# [8] = second compound 0.1 µM, first compound 0.1 µM
# [9] = second compound 0.1 µM, first compound 0.316 µM
# [10] = second compound 0.1 µM, first compound 1 µM
# [11] = second compound 0.1 µM, first compound 3.16 µM
# [12] = second compound 0.1 µM, first compound 10 µM
# [13] = second compound 0.316 µM, first compound 0.0316 µM
# [14] = second compound 0.316 µM, first compound 0.1 µM
# [15] = second compound 0.316 µM, first compound 0.316 µM
# [16] = second compound 0.316 µM, first compound 1 µM
# [17] = second compound 0.316 µM, first compound 3.16 µM
# [18] = second compound 0.316 µM, first compound 10 µM
# [19] = second compound 1 µM, first compound 0.0316 µM
# [20] = second compound 1 µM, first compound 0.1 µM
# [21] = second compound 1 µM, first compound 0.316 µM
# [22] = second compound 1 µM, first compound 1 µM
# [23] = second compound 1 µM, first compound 3.16 µM
# [24] = second compound 1 µM, first compound 10 µM
# [25] = second compound 3.16 µM, first compound 0.0316 µM
# [26] = second compound 3.16 µM, first compound 0.1 µM
# [27] = second compound 3.16 µM, first compound 0.316 µM
# [28] = second compound 3.16 µM, first compound 1 µM
# [29] = second compound 3.16 µM, first compound 3.16 µM
# [30] = second compound 3.16 µM, first compound 10 µM
# [31] = second compound 10 µM, first compound 0.0316 µM
# [32] = second compound 10 µM, first compound 0.1 µM
# [33] = second compound 10 µM, first compound 0.316 µM
# [34] = second compound 10 µM, first compound 1 µM
# [35] = second compound 10 µM, first compound 3.16 µM
# [36] = second compound 10 µM, first compound 10 µM
# 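Also: spheroids exposed to compounds for seven days.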
# 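For viability, T/C in this document: 100% = DMSO vehicle control viability.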
structure (smiles),measurement,setting,value
CC1COCCN1c1cc(-c2ccnn2C)c2ccnc(-c3ccn[nH]3)c2n1 (centres undefined) + COC1C(OC(N)=O)C(O)C(Oc2ccc3c(O)c(NC(=O)c4ccc(O)c(CC=C(C)C)c4)c(=O)oc3c2C)OC1(C)C,pIC50,second compound 0.0316 µM,6.68
same,pIC50,second compound 0.1 µM,6.76
same,pIC50,second compound 0.316 µM,6.71
same,pIC50,second compound 1 µM,6.60
same,pIC50,second compound 3.16 µM,6.69
same,pIC50,second compound 10 µM,6.80
same,"viability, T/C",[1],81.5%
same,"viability, T/C",[2],67.3%
same,"viability, T/C",[3],39.3%
same,"viability, T/C",[4],23.3%
same,"viability, T/C",[5],16.3%
same,"viability, T/C",[6],14%
same,"viability, T/C",[7],94.2%
same,"viability, T/C",[8],57.8%
same,"viability, T/C",[9],44.5%
same,"viability, T/C",[10],21.3%
same,"viability, T/C",[11],18.1%
same,"viability, T/C",[12],14.1%
same,"viability, T/C",[13],78.2%
same,"viability, T/C",[14],66.3%
same,"viability, T/C",[15],37.2%
same,"viability, T/C",[16],22.4%
same,"viability, T/C",[17],17.2%
same,"viability, T/C",[18],13.3%
same,"viability, T/C",[19],83.3%
same,"viability, T/C",[20],74.2%
same,"viability, T/C",[21],43.3%
same,"viability, T/C",[22],22.9%
same,"viability, T/C",[23],16.9%
same,"viability, T/C",[24],13.2%
same,"viability, T/C",[25],85.5%
same,"viability, T/C",[26],61.6%
same,"viability, T/C",[27],46.2%
same,"viability, T/C",[28],19.4%
same,"viability, T/C",[29],18.3%
same,"viability, T/C",[30],14.1%
same,"viability, T/C",[31],79.9%
same,"viability, T/C",[32],54.5%
same,"viability, T/C",[33],44.6%
same,"viability, T/C",[34],19.9%
same,"viability, T/C",[35],16.7%
same,"viability, T/C",[36],17%
CC1COCCN1c1cc(C2(S(C)(=N)=O)CC2)nc(-c2ccnc3[nH]ccc23)n1 (centres undefined) + COC1C(OC(N)=O)C(O)C(Oc2ccc3c(O)c(NC(=O)c4ccc(O)c(CC=C(C)C)c4)c(=O)oc3c2C)OC1(C)C,pIC50,second compound 0.0316 µM,5.38
same,pIC50,second compound 0.1 µM,5.39
same,pIC50,second compound 0.316 µM,5.39
same,pIC50,second compound 1 µM,5.34
same,pIC50,second compound 3.16 µM,5.46
same,pIC50,second compound 10 µM,5.50
same,"viability, T/C",[1],102%
same,"viability, T/C",[2],95.8%
same,"viability, T/C",[3],98.7%
same,"viability, T/C",[4],94.2%
same,"viability, T/C",[5],58.6%
same,"viability, T/C",[6],23.6%
same,"viability, T/C",[7],114%
same,"viability, T/C",[8],100%
same,"viability, T/C",[9],90.5%
same,"viability, T/C",[10],72.5%
same,"viability, T/C",[11],62.2%
same,"viability, T/C",[12],26.8%
same,"viability, T/C",[13],96.2%
same,"viability, T/C",[14],97.3%
same,"viability, T/C",[15],94.7%
same,"viability, T/C",[16],84.8%
same,"viability, T/C",[17],56.4%
same,"viability, T/C",[18],27%
same,"viability, T/C",[19],97.1%
same,"viability, T/C",[20],104%
same,"viability, T/C",[21],88.6%
same,"viability, T/C",[22],87.1%
same,"viability, T/C",[23],61.2%
same,"viability, T/C",[24],23.9%
same,"viability, T/C",[25],101%
same,"viability, T/C",[26],100%
same,"viability, T/C",[27],84.2%
same,"viability, T/C",[28],69.4%
same,"viability, T/C",[29],54%
same,"viability, T/C",[30],26.8%
same,"viability, T/C",[31],102%
same,"viability, T/C",[32],88.8%
same,"viability, T/C",[33],103%
same,"viability, T/C",[34],74.5%
same,"viability, T/C",[35],51.9%
same,"viability, T/C",[36],24%
